Values of other authors in US20210113664A1, “IMPLANTS FOR RELEASE OF LIPOPHILIC OR AMPHIPHILIC PHARMACEUTICAL SUBSTANCES” (Titan Pharmaceuticals, Inc., priority 2018, published 2021).

Conditions: values as reported by PubChem

| Compound | log Poct |
| --- | --- |
| CC#CCC(C)[C@H](O)/C=C/[C@@H]1[C@H]2C/C(=C/CCCC(=O)O)C[C@H]2C[C@H]1O (some centres unmarked) [iloprost] | about 4.8 |
| N[C@@H](Cc1cc(I)c(Oc2cc(I)c(O)c(I)c2)c(I)c1)C(=O)O [levothyroxine] | about 4 |
